{
  "source": "patent US8785614B2",
  "about": "“Aberrantly methylated genes in pancreatic cancer” (The Johns Hopkins University, priority 2003, dated 2014)",
  "tested_on": "MiaPaCa2 pancreatic cancer cell line",
  "assay": "Oligonucleotide microarray gene expression after TSA (1 μM, 24 h) vs mock",
  "format": "cell-based, human",
  "experimental": "Mock-treated cells were cultured with the equivalent volume of PBS alone.\nTotal RNA was isolated from cultured cells using TRIZOL reagent (invitrogen, Carlsbad, Calif.) and purified using RNeasy Mini Kit (Qiagen, Valencia, Calif.). First- and second-stranded cDNA was synthesized from 10 μg of total RNA using 17-dT) primer (Genset Corp., La Jolla, Calif.) and Superscript Choice system (Invitrogen). Labeled cRNA was synthesized from the purified cDNA by in vitro transcription reaction using the BioArray High Yield RNA Transcript Labeling Kit (Enzo Diagnostics, Inc., Farmingdale, N.Y.) at 37° C. for 6 h. The cRNA was fragmented at 94° C. for 35 min. in a fragmentation buffer [40 mM Tris-acetate @ pH 8.1, 100 mM potassium acestate, and 30 mM magnesium acetate]. The fragmented cRNA was then hybridized to the Human Genome U133A chips (Affymetrix, Santa Clara, Calif.) with 18462 unique gene/EST transcripts at 45° C. for 16 h. The washing and staining procedure was performed in the Affymetrix Fluidics Station according to the manufacturer's instructions. The probes were then scanned using a laser scanner, and signal intensity for each transcript (background-subtracted and adjusted for noise) was calculated using Microarray Suite Software 5.0 (Affymetrix).\nFold change analysis of signal intensities obtained from oligonucleotide microarrays between the two treatment groups was performed using Data Mining software (Afrymetrix).",
  "data": [
    {"smiles": "CC(/C=C/C(=O)NO)=C\\[C@@H](C)C(=O)c1ccc(N(C)C)cc1", "note": "[TSA, trichostatin A]", "values": [
      {"measurement": "Fold-change after TSA treatment", "setting": "ADM, MiaPaCa2", "value": 5.02, "unit": "fold"},
      {"measurement": "Fold-change after TSA treatment", "setting": "ANGPT1, MiaPaCa2", "value": 1.75, "unit": "fold"},
      {"measurement": "Fold-change after TSA treatment", "setting": "AREG, MiaPaCa2", "value": 3.97, "unit": "fold"},
      {"measurement": "Fold-change after TSA treatment", "setting": "ATF3, MiaPaCa2", "value": 2.14, "unit": "fold"},
      {"measurement": "Fold-change after TSA treatment", "setting": "BIK, MiaPaCa2", "value": 10.05, "unit": "fold"},
      {"measurement": "Fold-change after TSA treatment", "setting": "CACNA1G, MiaPaCa2", "value": 4.61, "unit": "fold"},
      {"measurement": "Fold-change after TSA treatment", "setting": "CAPN5, MiaPaCa2", "value": 5.18, "unit": "fold"},
      {"measurement": "Fold-change after TSA treatment", "setting": "CDH8, MiaPaCa2", "value": "−1.29", "unit": "fold"},
      {"measurement": "Fold-change after TSA treatment", "setting": "CDKN1C, MiaPaCa2", "value": 13.22, "unit": "fold"},
      {"measurement": "Fold-change after TSA treatment", "setting": "CGR11, MiaPaCa2", "value": 3.22, "unit": "fold"},
      {"measurement": "Fold-change after TSA treatment", "setting": "CHES1, MiaPaCa2", "value": "−1.03", "unit": "fold"},
      {"measurement": "Fold-change after TSA treatment", "setting": "CHFR, MiaPaCa2", "value": 1.27, "unit": "fold"},
      {"measurement": "Fold-change after TSA treatment", "setting": "CLDN15, MiaPaCa2", "value": 1.13, "unit": "fold"},
      {"measurement": "Fold-change after TSA treatment", "setting": "EDR1, MiaPaCa2", "value": 5.91, "unit": "fold"},
      {"measurement": "Fold-change after TSA treatment", "setting": "EGR4, MiaPaCa2", "value": 8.67, "unit": "fold"},
      {"measurement": "Fold-change after TSA treatment", "setting": "EREG, MiaPaCa2", "value": 1.7, "unit": "fold"},
      {"measurement": "Fold-change after TSA treatment", "setting": "GADD45B, MiaPaCa2", "value": 5.06, "unit": "fold"},
      {"measurement": "Fold-change after TSA treatment", "setting": "GAGE1, MiaPaCa2", "value": 0.53, "unit": "fold"},
      {"measurement": "Fold-change after TSA treatment", "setting": "GAGE2, MiaPaCa2", "value": 1.31, "unit": "fold"},
      {"measurement": "Fold-change after TSA treatment", "setting": "GAGE3, MiaPaCa2", "value": "−2.68", "unit": "fold"},
      {"measurement": "Fold-change after TSA treatment", "setting": "GAGE4, MiaPaCa2", "value": 1.32, "unit": "fold"},
      {"measurement": "Fold-change after TSA treatment", "setting": "GAGE6, MiaPaCa2", "value": "−2.17", "unit": "fold"},
      {"measurement": "Fold-change after TSA treatment", "setting": "GAGE7B, MiaPaCa2", "value": "−1.76", "unit": "fold"},
      {"measurement": "Fold-change after TSA treatment", "setting": "H1 historic family, member 2 (BC002649), MiaPaCa2", "value": 4.16, "unit": "fold"},
      {"measurement": "Fold-change after TSA treatment", "setting": "HEP27, MiaPaCa2", "value": 26.21, "unit": "fold"},
      {"measurement": "Fold-change after TSA treatment", "setting": "HMOX1, MiaPaCa2", "value": 5.25, "unit": "fold"},
      {"measurement": "Fold-change after TSA treatment", "setting": "HPSE, MiaPaCa2", "value": 14.09, "unit": "fold"},
      {"measurement": "Fold-change after TSA treatment", "setting": "ID2, MiaPaCa2", "value": 2.27, "unit": "fold"},
      {"measurement": "Fold-change after TSA treatment", "setting": "ING1, MiaPaCa2", "value": 13.25, "unit": "fold"},
      {"measurement": "Fold-change after TSA treatment", "setting": "KLK12, MiaPaCa2", "value": 2.91, "unit": "fold"},
      {"measurement": "Fold-change after TSA treatment", "setting": "MAGE1, MiaPaCa2", "value": 5.17, "unit": "fold"},
      {"measurement": "Fold-change after TSA treatment", "setting": "MBD1, MiaPaCa2", "value": 1.28, "unit": "fold"},
      {"measurement": "Fold-change after TSA treatment", "setting": "MMP1, MiaPaCa2", "value": 1.01, "unit": "fold"},
      {"measurement": "transcripts with marked induction", "setting": "MiaPaCa2", "value": 207, "unit": "transcripts"},
      {"measurement": "transcripts with marked induction, share of transcripts analyzed", "setting": "MiaPaCa2", "value": 1.1, "unit": "%"},
      {"measurement": "Fold-change after TSA treatment", "setting": "NGFR, MiaPaCa2", "value": 13.46, "unit": "fold"},
      {"measurement": "Fold-change after TSA treatment", "setting": "NOTCH3, MiaPaCa2", "value": "−1.04", "unit": "fold"},
      {"measurement": "Fold-change after TSA treatment", "setting": "P-glycoprotein (mdr1), MiaPaCa2", "value": 2.74, "unit": "fold"},
      {"measurement": "Fold-change after TSA treatment", "setting": "STC1, MiaPaCa2", "value": 2.73, "unit": "fold"},
      {"measurement": "Fold-change after TSA treatment", "setting": "UCPH, MiaPaCa2", "value": 6.39, "unit": "fold"},
      {"measurement": "Fold-change after TSA treatment", "setting": "ULBP2, MiaPaCa2", "value": 4.09, "unit": "fold"},
      {"measurement": "Fold-change after TSA treatment", "setting": "WNT4, MiaPaCa2", "value": 3.36, "unit": "fold"},
      {"measurement": "Fold-change after TSA treatment", "setting": "candidate tumor suppressor gene 21 protein (AF040708), MiaPaCa2", "value": 1.15, "unit": "fold"},
      {"measurement": "Fold-change after TSA treatment", "setting": "connective tissue growth factor (M92934), MiaPaCa2", "value": 4.28, "unit": "fold"},
      {"measurement": "Fold-change after TSA treatment", "setting": "hemoglobin, alpha 1 (HBAI), MiaPaCa2", "value": 77.77, "unit": "fold"},
      {"measurement": "Fold-change after TSA treatment", "setting": "interleukin 8, MiaPaCa2", "value": 1.36, "unit": "fold"},
      {"measurement": "Fold-change after TSA treatment", "setting": "period homolog 1 (PERI), MiaPaCa2", "value": 1.28, "unit": "fold"},
      {"measurement": "Fold-change after TSA treatment", "setting": "prostate differentiation factor (AF003934), MiaPaCa2", "value": 16.4, "unit": "fold"},
      {"measurement": "Fold-change after TSA treatment", "setting": "protease inhibitor 12 (neuroserpin) (SERPINU), MiaPaCa2", "value": 44.44, "unit": "fold"},
      {"measurement": "Fold-change after TSA treatment", "setting": "synovial sarcoma, X breakpoint 1 (BC001003), MiaPaCa2", "value": 1.5, "unit": "fold"},
      {"measurement": "Fold-change after TSA treatment", "setting": "tissue factor pathway inhibitor-2 (L27624), MiaPaCa2", "value": "−0.68", "unit": "fold"}
    ]}
  ]
}
